Patent publication US12630540B2, “(4-(6-((2-octahydrocyclopenta[c]pyrrol-5-yl)amino)pyridazin-3-yl)phenyl)(imino)(methyl)-LAMBDA6-sulfanone derivatives and similar compounds as muscarinic acetylcholine receptor M4 antagonists for the treatment of neurodegenerative disorders” (Vanderbilt University, priority 2021, dated 2026)

Molecular target: T1, Human M4 (Homo sapiens, UniProt P08173)
T1 construct: expressed in transfected cells; host or cells: CHO-K1 (ATCC), stably expressing M4 and Gqi5
T1 sequence (P08173 1-479): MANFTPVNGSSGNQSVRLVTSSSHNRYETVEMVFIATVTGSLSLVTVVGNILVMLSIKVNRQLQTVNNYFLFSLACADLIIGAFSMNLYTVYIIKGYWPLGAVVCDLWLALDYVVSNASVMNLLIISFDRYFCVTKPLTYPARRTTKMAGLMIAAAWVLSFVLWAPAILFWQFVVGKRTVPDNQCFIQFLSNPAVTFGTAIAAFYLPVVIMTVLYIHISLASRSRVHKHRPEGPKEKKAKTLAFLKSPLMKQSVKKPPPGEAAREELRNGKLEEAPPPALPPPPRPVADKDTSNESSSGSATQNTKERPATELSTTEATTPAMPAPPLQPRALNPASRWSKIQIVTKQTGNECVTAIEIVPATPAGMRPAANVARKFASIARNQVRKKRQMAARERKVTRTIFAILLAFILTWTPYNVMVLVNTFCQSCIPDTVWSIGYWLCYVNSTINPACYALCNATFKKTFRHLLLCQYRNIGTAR
Assay: mAChR M4 cell-based functional assay (calcium flux, antagonism of EC80 acetylcholine response)
Conditions: M4/Gqi5 CHO-K1 cells; for Human M4 Emin: % ACh maximum at 30 μM; for IC50: decrease of the response elicited by an EC80 concentration of acetylcholine
Description: Human or rat M4 cDNA, along with the chimeric G protein Gqi5, were transfected into Chinese hamster ovary (CHO-K1) cells purchased from the American Type Culture Collection using Lipofectamine2000. M4/Gqr5/CHO cells were grown in Ham's F-12 medium containing 10% heat-inactivated fetal bovine serum (FBS), 20 mM HEPES, 500 μg/mL G418 sulfate, and 200 μg/mL Hygromycin B.
For high throughput measurement of agonist-evoked increases in intracellular calcium, CHO-K1 cells stably expressing muscarinic receptors were plated in growth medium lacking G418 and hygromycin at 15,000 cells/20 μL/well in Greiner 384-well black-walled, tissue culture (TC)-treated, clear-bottom plates (VWR). Cells were incubated overnight at 37° C. and 5% CO2. The next day, cells were washed using an ELX 405 (BioTek) with assay buffer; the final volume was then aspirated to 20 μL. Next, 20 μL of a 2.3 μM stock of Fluo-4/acetoxymethyl ester (Invitrogen, Carlsbad, CA), prepared as a 2.3 mM stock in DMSO and mixed in a 1:1 ratio with 10% (w/v) Pluronic F-127 and diluted in assay buffer, was added to the wells and the cell plates were incubated for 50 min at 37° C. and 5% CO2. Dye was removed by washing with the ELX 405 and the final volume was aspirated to 20 μL. Compound master plates were formatted in a 10 point concentration-response curve (CRC) format (1:3 dilutions) in 100% DMSO with a starting concentration of 10 or 1 mM using a BRAVO liquid handler (Agilent). Test compound CRCs were then transferred to daughter plates (240 nL) using the Echo acoustic plate reformatter (Labcyte, Sunnyvale, CA) and then diluted into assay buffer (40 μL) to a 2× stock using a Thermo Fisher Combi (Thermo Fisher Scientific, Waltham, MA).
Calcium flux was measured using the Functional Drug Screening System (FDSS) 6000 or 7000 (Hamamatsu Corporation, Tokyo, Japan) as an increase in the fluorescent static ratio. Compounds were applied to cells (20 μL, 2×) using the automated system of the FDSS at 2 seconds into the protocol and the data were collected at 1 Hz. At 143 s, 10 μL of an EC20 concentration of the muscarinic receptor agonist acetylcholine was added (5×), followed by the addition of 12 μL of an EC80 concentration of acetylcholine at the 268 s time point (5×). Agonist activity was analyzed as a concentration-dependent increase in calcium mobilization upon compound addition. Positive allosteric modulator activity was analyzed as a concentration-dependent increase in the EC20 acetylcholine response. Antagonist activity was analyzed as a concentration-dependent decrease in the EC80 acetylcholine response; for the purposes of the tables herein, an IC50 (inhibitory concentration 50) was calculated as a concentration-dependent decrease of the response elicited by an EC80 concentration of acetylcholine. Concentration-response curves were generated using a four-parameter logistical equation in XLFit curve fitting software (IDBS, Bridgewater, NJ) for Excel (Microsoft, Redmond, WA) or Prism (GraphPad Software, Inc., San Diego, CA) or the Dotmatics software platform (Dotmatics, Bishop's Stortford, UK).
Compounds were synthesized as described above. Activity (IC50 and Emin) was determined in the mAChR M4 cell-based functional assay as described above and the data are shown in Table 2.

Human M4 Emin	IC50	SMILES
4%	0.0134 µM	[2H]C([2H])(C1CCOCC1)N1C[C@H]2C[C@H](Nc3ccc(-c4cc(F)c(S(C)(=N)=O)cc4F)nn3)C[C@H]2C1 (stereo partly drawn) [compound 1, (2,5-difluoro-4-(6-(((3aR,5s,6aS)-2-((tetrahydro-2H-pyran-4-yl)methyl-d2)octahydrocyclopenta[c]pyrrol-5-yl)amino)pyridazin-3-yl)phenyl)(imino)(methyl)-λ^6-sulfanone]
2%	0.0396 µM	[2H]C([2H])(C1CCOCC1)N1C[C@H]2C[C@H](Nc3ccc(-c4ccc(S(C)(=N)=O)cc4)nn3)C[C@H]2C1 (stereo partly drawn) [compound 2, imino(methyl)(4-(6-(((3aR,5s,6aS)-2-((tetrahydro-2H-pyran-4-yl)methyl-d2)octahydrocyclopenta[c]pyrrol-5-yl)amino)pyridazin-3-yl)phenyl)-λ^6-sulfanone]
3%	0.0185 µM	[2H]C([2H])([2H])N=S(C)(=O)c1cc(F)c(-c2ccc(N[C@H]3C[C@@H]4CN(C([2H])([2H])C5CCOCC5)C[C@@H]4C3)nn2)cc1F (stereo partly drawn) [compound 3, (2,5-difluoro-4-(6-(((3aR,5s,6aS)-2-((tetrahydro-2H-pyran-4-yl)methyl-d2)octahydrocyclopenta[c]pyrrol-5-yl)amino)pyridazin-3-yl)phenyl)(methyl)((methyl-d3)imino)-λ^6-sulfanone]
6%	0.584 µM	[2H]C([2H])(C1CCOCC1)N1C[C@H]2C[C@H](Nc3ccc(-c4cc(F)c(S(C)(=O)=NC(C)=O)cc4F)nn3)C[C@H]2C1 (stereo partly drawn) [compound 4, N-((2,5-difluoro-4-(6-(((3aR,5s,6aS)-2-((tetrahydro-2H-pyran-4-yl)methyl-d2)octahydrocyclopenta[c]pyrrol-5-yl)amino)pyridazin-3-yl)phenyl)(methyl)(oxo)-λ^6-sulfaneylidene)acetamide]
3%	0.0754 µM	[2H]C([2H])(C1CCOCC1)N1C[C@H]2C[C@H](Nc3ccc(-c4ccc(S(C)(=N)=O)cc4F)nn3)C[C@H]2C1 (stereo partly drawn) [compound 5, (3-fluoro-4-(6-(((3aR,5s,6aS)-2-((tetrahydro-2H-pyran-4-yl)methyl-d2)octahydrocyclopenta[c]pyrrol-5-yl)amino)pyridazin-3-yl)phenyl)(imino)(methyl)-λ^6-sulfanone]
3%	0.188 µM	[2H]C([2H])(C1CCOCC1)N1C[C@H]2C[C@H](Nc3ccc(-c4ccc(S(C)(=N)=O)c(F)c4)nn3)C[C@H]2C1 (stereo partly drawn) [compound 6, (2-fluoro-4-(6-(((3aR,5s,6aS)-2-((tetrahydro-2H-pyran-4-yl)methyl-d2)octahydrocyclopenta[c]pyrrol-5-yl)amino)pyridazin-3-yl)phenyl)(imino)(methyl)-λ^6-sulfanone]
3%	0.04 µM	CS(=N)(=O)c1cc(F)c(-c2ccc(N[C@H]3C[C@@H]4CN(CC5CCOCC5)C[C@@H]4C3)nn2)cc1F (stereo partly drawn) [compound 7, (2,5-difluoro-4-(6-(((3aR,5s,6aS)-2-((tetrahydro-2H-pyran-4-yl)methyl)octahydrocyclopenta[c]pyrrol-5-yl)amino)pyridazin-3-yl)phenyl)(imino)(methyl)-λ^6-sulfanone]
7%	0.56 µM	CS(=N)(=O)c1cc(F)c(-c2ccc(N[C@H]3C[C@@H]4CN(Cc5ccccn5)C[C@@H]4C3)nn2)cc1F (stereo partly drawn) [compound 8, (2,5-difluoro-4-(6-(((3aR,5s,6aS)-2-(pyridin-2-ylmethyl)octahydrocyclopenta[c]pyrrol-5-yl)amino)pyridazin-3-yl)phenyl)(imino)(methyl)-λ^6-sulfanone]
3%	0.0184 µM	CS(=N)(=O)c1cc(F)c(-c2ccc(N[C@H]3C[C@@H]4CN(CCC5CCOCC5)C[C@@H]4C3)nn2)cc1F (stereo partly drawn) [compound 9, (2,5-difluoro-4-(6-(((3aR,5s,6aS)-2-(2-(tetrahydro-2H-pyran-4-yl)ethyl)octahydrocyclopenta[c]pyrrol-5-yl)amino)pyridazin-3-yl)phenyl)(imino)(methyl)-λ^6-sulfanone]
2%	0.0018 µM	CS(=N)(=O)c1cc(F)c(-c2ccc(N[C@H]3C[C@@H]4CN(CC5CCCCC5)C[C@@H]4C3)nn2)cc1F (stereo partly drawn) [compound 10, (4-(6-(((3aR,5s,6aS)-2-(cyclohexylmethyl)octahydrocyclopenta[c]pyrrol-5-yl)amino)pyridazin-3-yl)-2,5-difluorophenyl)(imino)(methyl)-λ^6-sulfanone]
3%	0.0862 µM	[2H]C([2H])(C1CC(C)(C)OC(C)(C)C1)N1C[C@H]2C[C@H](Nc3ccc(-c4cc(F)c(S(C)(=N)=O)cc4F)nn3)C[C@H]2C1 (stereo partly drawn) [compound 11, (2,5-difluoro-4-(6-(((3aR,5s,6aS)-2-((2,2,6,6-tetramethyltetrahydro-2H-pyran-4-yl)methyl-d2)octahydrocyclopenta[c]pyrrol-5-yl)amino)pyridazin-3-yl)phenyl)(imino)(methyl)-λ^6-sulfanone]
2%	0.0434 µM	[2H]C([2H])(C1CCOCC1)N1C[C@H]2C[C@H](Nc3ccc(-c4ccc(S(C)(=O)=NC(F)(F)F)cc4)nn3)C[C@H]2C1 (stereo partly drawn) [compound 12, methyl(4-(6-(((3aR,5s,6aS)-2-((tetrahydro-2H-pyran-4-yl)methyl-d2)octahydrocyclopenta[c]pyrrol-5-yl)amino)pyridazin-3-yl)phenyl)((trifluoromethyl)imino)-λ^6-sulfanone]
3%	0.0086 µM	[2H]C([2H])(C1CCOCC1)N1C[C@H]2C[C@H](Nc3ccc(-c4ccc(S(C)(=N)=O)c(C(F)(F)F)c4)nn3)C[C@H]2C1 (stereo partly drawn) [compound 13, imino(methyl)(4-(6-(((3aR,5s,6aS)-2-((tetrahydro-2H-pyran-4-yl)methyl-d2)octahydrocyclopenta[c]pyrrol-5-yl)amino)pyridazin-3-yl)-2-(trifluoromethyl)phenyl)-λ^6-sulfanone]
